Data on five compounds can be found in the supplement of paper PMC10307832.

Structures are written as SMILES.

The first assay relates to NCI-H2228. The experiment in a line: relative viability (nuclei count vs DMSO), 5 days (fraction); higher = more cells survive. The conditions noted are these: first compound 8 µM. In short, it runs like this: (§1)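 Values are medians from duplicate plates. Each reflects relative viability, defined as the nuclei count of treated wells over that of vehicle wells. Lung cancer cell lines in 1536-well plates were pin-tool dosed one day after seeding with one drug alone or with a fixed anchor-drug dose plus five library-drug doses (not always all listed) in √10 steps, then fixed, stained and imaged at 4× after 5 days.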
`Nc1cccc2c1CN(C1CCC(=O)NC1=O)C2=O` (stereo not given) [Lenalidomide] + CC(=O)c1c(C)c2cnc(Nc3ccc(N4CCNCC4)cn3)nc2n(C2CCCC2)c1=O [Palbociclib] (partner 0.5 µM) had a relative viability of 0.657.

`Nc1cccc2c1CN(C1CCC(=O)NC1=O)C2=O` (stereo not given) [Lenalidomide] + O=C(CCCCCCC(=O)Nc1ccccc1)NO [Vorinostat] (partner 1 µM) came in with a relative viability of 1.12.

The compound `Nc1cccc2c1CN(C1CCC(=O)NC1=O)C2=O` (stereo not given) [Lenalidomide] + COc1cccc2cc(-c3nc([C@H]4CC[C@H](C(=O)O)CC4)n4ncnc(N)c34)[nH]c12 [OSI-027] (partner 0.5 µM) had a relative viability of 0.473.

Another assay relates to NCI-H2342. The assay is described as above. The settings on record: first compound 0.253 µM. Summed up: as §1
As for `Nc1cccc2c1CN(C1CCC(=O)NC1=O)C2=O` (stereo not given) [Lenalidomide] + N=C(N)NC(=N)NCCc1ccccc1 [Phenformin] (partner 250 µM), the relative viability worked out at 0.637.

The compound `Nc1cccc2c1CN(C1CCC(=O)NC1=O)C2=O` (stereo not given) [Lenalidomide] + Cc1cc(Nc2cc(N3CCN(C)CC3)nc(Sc3ccc(NC(=O)C4CC4)cc3)n2)n[nH]1 [Tozasertib] (partner 0.1 µM) displayed a relative viability of 0.504.

Take `Nc1cccc2c1CN(C1CCC(=O)NC1=O)C2=O` (stereo not given) [Lenalidomide] + CC(=O)c1c(C)c2cnc(Nc3ccc(N4CCNCC4)cn3)nc2n(C2CCCC2)c1=O [Palbociclib] (partner 0.5 µM): the relative viability came out at 0.551.

Consider `Nc1cccc2c1CN(C1CCC(=O)NC1=O)C2=O` (stereo not given) [Lenalidomide] + O=C(CCCCCCC(=O)Nc1ccccc1)NO [Vorinostat] (partner 1 µM), for which the relative viability came out at 0.744.

As to `Nc1cccc2c1CN(C1CCC(=O)NC1=O)C2=O` (stereo not given) [Lenalidomide] + COc1cccc2cc(-c3nc([C@H]4CC[C@H](C(=O)O)CC4)n4ncnc(N)c34)[nH]c12 [OSI-027] (partner 0.5 µM), the relative viability amounted to 0.67.

The assay is the same for the next values; noted with them: first compound 0.8 µM.
The compound `Nc1cccc2c1CN(C1CCC(=O)NC1=O)C2=O` (stereo not given) [Lenalidomide] + N=C(N)NC(=N)NCCc1ccccc1 [Phenformin] (partner 250 µM) returned a relative viability of 0.551.

Turning to `Nc1cccc2c1CN(C1CCC(=O)NC1=O)C2=O` (stereo not given) [Lenalidomide] + Cc1cc(Nc2cc(N3CCN(C)CC3)nc(Sc3ccc(NC(=O)C4CC4)cc3)n2)n[nH]1 [Tozasertib] (partner 0.1 µM), the relative viability came to 0.49.

As for `Nc1cccc2c1CN(C1CCC(=O)NC1=O)C2=O` (stereo not given) [Lenalidomide] + CC(=O)c1c(C)c2cnc(Nc3ccc(N4CCNCC4)cn3)nc2n(C2CCCC2)c1=O [Palbociclib] (partner 0.5 µM), the relative viability stood at 0.53.

In turn, `Nc1cccc2c1CN(C1CCC(=O)NC1=O)C2=O` (stereo not given) [Lenalidomide] + O=C(CCCCCCC(=O)Nc1ccccc1)NO [Vorinostat] (partner 1 µM) gave a relative viability of 0.599.

For the compound `Nc1cccc2c1CN(C1CCC(=O)NC1=O)C2=O` (stereo not given) [Lenalidomide] + COc1cccc2cc(-c3nc([C@H]4CC[C@H](C(=O)O)CC4)n4ncnc(N)c34)[nH]c12 [OSI-027] (partner 0.5 µM), the relative viability was determined as 0.572.

Still in this assay, the particulars now being: first compound 2.53 µM.
Take `Nc1cccc2c1CN(C1CCC(=O)NC1=O)C2=O` (stereo not given) [Lenalidomide] + N=C(N)NC(=N)NCCc1ccccc1 [Phenformin] (partner 250 µM): the relative viability was 0.628.

Take `Nc1cccc2c1CN(C1CCC(=O)NC1=O)C2=O` (stereo not given) [Lenalidomide] + Cc1cc(Nc2cc(N3CCN(C)CC3)nc(Sc3ccc(NC(=O)C4CC4)cc3)n2)n[nH]1 [Tozasertib] (partner 0.1 µM): the relative viability was determined as 0.649.

For the compound `Nc1cccc2c1CN(C1CCC(=O)NC1=O)C2=O` (stereo not given) [Lenalidomide] + CC(=O)c1c(C)c2cnc(Nc3ccc(N4CCNCC4)cn3)nc2n(C2CCCC2)c1=O [Palbociclib] (partner 0.5 µM), the relative viability amounted to 0.502.

Take `Nc1cccc2c1CN(C1CCC(=O)NC1=O)C2=O` (stereo not given) [Lenalidomide] + O=C(CCCCCCC(=O)Nc1ccccc1)NO [Vorinostat] (partner 1 µM): the relative viability came out at 0.923.

As to `Nc1cccc2c1CN(C1CCC(=O)NC1=O)C2=O` (stereo not given) [Lenalidomide] + COc1cccc2cc(-c3nc([C@H]4CC[C@H](C(=O)O)CC4)n4ncnc(N)c34)[nH]c12 [OSI-027] (partner 0.5 µM), the relative viability stood at 0.57.

The same assay, now with this note: first compound 8 µM.
Turning to `Nc1cccc2c1CN(C1CCC(=O)NC1=O)C2=O` (stereo not given) [Lenalidomide] + N=C(N)NC(=N)NCCc1ccccc1 [Phenformin] (partner 250 µM), the relative viability amounted to 0.505.

`Nc1cccc2c1CN(C1CCC(=O)NC1=O)C2=O` (stereo not given) [Lenalidomide] + Cc1cc(Nc2cc(N3CCN(C)CC3)nc(Sc3ccc(NC(=O)C4CC4)cc3)n2)n[nH]1 [Tozasertib] (partner 0.1 µM) showed a relative viability of 0.441.

`Nc1cccc2c1CN(C1CCC(=O)NC1=O)C2=O` (stereo not given) [Lenalidomide] + CC(=O)c1c(C)c2cnc(Nc3ccc(N4CCNCC4)cn3)nc2n(C2CCCC2)c1=O [Palbociclib] (partner 0.5 µM) came in with a relative viability of 0.476.

Take `Nc1cccc2c1CN(C1CCC(=O)NC1=O)C2=O` (stereo not given) [Lenalidomide] + O=C(CCCCCCC(=O)Nc1ccccc1)NO [Vorinostat] (partner 1 µM): the relative viability is 0.654.

With `Nc1cccc2c1CN(C1CCC(=O)NC1=O)C2=O` (stereo not given) [Lenalidomide] + COc1cccc2cc(-c3nc([C@H]4CC[C@H](C(=O)O)CC4)n4ncnc(N)c34)[nH]c12 [OSI-027] (partner 0.5 µM), the relative viability turned out to be 0.626.

Another assay relates to NCI-H23. The assay is described as above. The conditions noted are these: first compound 0.253 µM. In short, it runs like this:
as §1
Turning to `Nc1cccc2c1CN(C1CCC(=O)NC1=O)C2=O` (stereo not given) [Lenalidomide] + N=C(N)NC(=N)NCCc1ccccc1 [Phenformin] (partner 250 µM), the relative viability was 0.733.

`Nc1cccc2c1CN(C1CCC(=O)NC1=O)C2=O` (stereo not given) [Lenalidomide] + Cc1cc(Nc2cc(N3CCN(C)CC3)nc(Sc3ccc(NC(=O)C4CC4)cc3)n2)n[nH]1 [Tozasertib] (partner 0.1 µM) had a relative viability of 0.438.

Regarding `Nc1cccc2c1CN(C1CCC(=O)NC1=O)C2=O` (stereo not given) [Lenalidomide] + CC(=O)c1c(C)c2cnc(Nc3ccc(N4CCNCC4)cn3)nc2n(C2CCCC2)c1=O [Palbociclib] (partner 0.5 µM), the relative viability amounted to 0.534.

Compound `Nc1cccc2c1CN(C1CCC(=O)NC1=O)C2=O` (stereo not given) [Lenalidomide] + O=C(CCCCCCC(=O)Nc1ccccc1)NO [Vorinostat] (partner 1 µM) came in with a relative viability of 0.511.

`Nc1cccc2c1CN(C1CCC(=O)NC1=O)C2=O` (stereo not given) [Lenalidomide] + COc1cccc2cc(-c3nc([C@H]4CC[C@H](C(=O)O)CC4)n4ncnc(N)c34)[nH]c12 [OSI-027] (partner 0.5 µM): the relative viability amounted to 0.581.

Still in this assay, the particulars now being: first compound 0.8 µM.
For `Nc1cccc2c1CN(C1CCC(=O)NC1=O)C2=O` (stereo not given) [Lenalidomide] + N=C(N)NC(=N)NCCc1ccccc1 [Phenformin] (partner 250 µM), the relative viability came to 0.695.

Regarding `Nc1cccc2c1CN(C1CCC(=O)NC1=O)C2=O` (stereo not given) [Lenalidomide] + Cc1cc(Nc2cc(N3CCN(C)CC3)nc(Sc3ccc(NC(=O)C4CC4)cc3)n2)n[nH]1 [Tozasertib] (partner 0.1 µM), the relative viability came to 0.343.
